Legend:
MM1S cells = test: Subcutaneous xenograft model, in vivo synergy of S09 drug combinations; parameters: species or system CB17-SCID immunosuppressed mice; settings: MM1S s.c. xenograft, CB17-SCID mice; for Tumor volume: i.p.: B 0.5, C 50, D 0.5 mg/kg days 1 and 4, S09 4 mg/kg each 12 hours
Experimental: CB17-SCID immunosuppressed mice (female) of 6-7 weeks old housed and handled in a pathogen-free zone. They were purchased from Janvier Labs (France). All experiments were carried out within the facilities of the University of Salamanca (Spain).
Control: Medium (PBS), intraperitoneally (i.p.), each 12 hours on days 1 to 5.
Treatment Groups: • Monotherapy: • Bortezomib 0.5 mg/kg i.p. on days 1 and 4. • Cyclophosphamide 50 mg/kg i.p. on days 1 and 4 • Dexamethasone 0.5 mg/kg i.p. on days 1 and 4 • S09 4 mg/kg i.p. each 12 hours on days 1 to 7 • Double combinations: • Bortezomib 0.5 mg/kg i.p. on days 1 and 4+S09 4 mg/kg i.p. each 12 hours on days 1 to 7 • Cyclophosphamide 50 mg/kg i.p. on days 1 and 4+S09 4 mg/kg i.p. each 12 hours on days 1 to 7 • Dexamethasone 0.5 mg/kg i.p. on days 1 and 4+S09 4 mg/kg i.p. each 12 hours on days 1 to 7 • Bortezomib 0.5 mg/kg i.p. on days 1 and 4+Cyclophosphamide 50 mg/kg i.p. on days 1 and 4 • Cyclophosphamide 50 mg/kg i.p. on days 1 and 4+Dexamethasone 0.5 mg/kg i.p. on days 1 and 4 • Dexamethasone 0.5 mg/kg i.p. on days 1 and 4+Bortezomib 0.5 mg/kg i.p. on days 1 and 4 • Triple combinations: • Bortezomib 0.5 mg/kg i.p. on days 1 and 4+Dexamethasone 0.5 mg/kg i.p. on days 1 and 4+S09 4 mg/kg i.p. each 12 hours on days 1 to 7 • Cyclophosphamide 50 mg/kg i.p. on days 1 and 4+Dexamethasone 0.5 mg/kg i.p. on days 1 and 4+S09 4 mg/kg i.p. each 12 hours on days 1 to 7
Mice were shaved on the right flank and anesthetized by inhalation to decrease their mobility, were inoculated subcutaneously with 3×10^6 MM1S cells in 50 μl of RPMI-1640 medium and 50 μl of Corning @ Matrigel® Basement Membrane Matrix. […] This was estimated by measurements with a caliper of the two tumor diameters and using the following formula of a spheroid: […]
Where a and b correspond to the longest and shortest diameter, respectively. Tumor volume was monitored three times per week.
The treatment endpoint was determined by the value of tumor volume in the mouse (a range of 2000-2200 mm3).

[1] = Growth inhibition activity, comparative test of Example 3 (cell lines not given); assay type: cell-based; settings: Example 3, comparison with stapled versions
Excerpt: Following the same protocol as the one disclosed in previous sections, the following activity data were obtained: […]

[2] = day of treatment 5, relative to day 1
[3] = day of treatment 10, relative to day 1
[4] = day of treatment 15, relative to day 1
[5] = day of treatment 24, relative to day 1

## CC(C)C[C@H](NC(=O)[C@H](Cc1ccccc1)NC(=O)c1cnccn1)B(O)O [B, bortezomib]
MM1S cells; day of treatment 1 (= 100)
  normalized tumor volume percentage (%): 100.00%
MM1S cells; day of treatment 1
  Tumor volume: 119.96 mm^3
MM1S cells; [2]
  normalized tumor volume percentage (%): 138.36%
MM1S cells; day of treatment 5
  Tumor volume: 165.98 mm^3
MM1S cells; [3]
  normalized tumor volume percentage (%): 230.48%
MM1S cells; day of treatment 10
  Tumor volume: 276.48 mm^3
MM1S cells; [4]
  normalized tumor volume percentage (%): 470.62%
MM1S cells; day of treatment 15
  Tumor volume: 564.56 mm^3
MM1S cells; [5]
  normalized tumor volume percentage (%): 1410.31%
MM1S cells; day of treatment 24
  Tumor volume: 1691.81 mm^3

## O=P1(N(CCCl)CCCl)NCCCO1 (stereo not shown) [C, cyclophosphamide]
MM1S cells; day of treatment 1 (= 100)
  normalized tumor volume percentage (%): 100.00%
MM1S cells; day of treatment 1
  Tumor volume: 120.75 mm^3
MM1S cells; [2]
  normalized tumor volume percentage (%): 156.92%
MM1S cells; day of treatment 5
  Tumor volume: 189.48 mm^3
MM1S cells; [3]
  normalized tumor volume percentage (%): 247.48%
MM1S cells; day of treatment 10
  Tumor volume: 298.83 mm^3
MM1S cells; [4]
  normalized tumor volume percentage (%): 552.57%
MM1S cells; day of treatment 15
  Tumor volume: 667.23 mm^3
MM1S cells; [5]
  normalized tumor volume percentage (%): 1252.21%
MM1S cells; day of treatment 24
  Tumor volume: 1512.04 mm^3

## C[C@@H]1C[C@H]2[C@@H]3CCC4=CC(=O)C=C[C@]4(C)[C@@]3(F)[C@@H](O)C[C@]2(C)[C@@]1(O)C(=O)CO [D, dexamethasone]
MM1S cells; day of treatment 1 (= 100)
  normalized tumor volume percentage (%): 100.00%
MM1S cells; day of treatment 1
  Tumor volume: 120.35 mm^3
MM1S cells; [2]
  normalized tumor volume percentage (%): 110.62%
MM1S cells; day of treatment 5
  Tumor volume: 133.13 mm^3
MM1S cells; [3]
  normalized tumor volume percentage (%): 270.68%
MM1S cells; day of treatment 10
  Tumor volume: 325.76 mm^3
MM1S cells; [4]
  normalized tumor volume percentage (%): 524.90%
MM1S cells; day of treatment 15
  Tumor volume: 631.72 mm^3
MM1S cells; [5]
  normalized tumor volume percentage (%): 1206.21%
MM1S cells; day of treatment 24
  Tumor volume: 1451.67 mm^3

## Pro-Lys-Val-Val-11e-Leu-Lys-Lys-Ala-Thr-Ala-Tyr-Ile (PKVVILKKATAYI; wild type sequence) [SEQ ID NO: 11]
[1]
  growth inhibition activity: does not present growth inhibition activity

From patent US20200261534A1, “NEW TREATMENTS OF MULTIPLE MYELOMA” (priority 2017, published 2020)
